molecular target: T1, hROMK (hKir1.1) (Homo sapiens, UniProt P48048); assay: Thallium Flux Assay (ROMK channel functional thallium flux, FLIPR-Tetra); assay type: cell-based; details: HEK293 cells stably expressing hROMK (hKir1.1); 30 min compound incubation
T1 construct: expressed in transfected cells
T1 sequence (P48048 1-391): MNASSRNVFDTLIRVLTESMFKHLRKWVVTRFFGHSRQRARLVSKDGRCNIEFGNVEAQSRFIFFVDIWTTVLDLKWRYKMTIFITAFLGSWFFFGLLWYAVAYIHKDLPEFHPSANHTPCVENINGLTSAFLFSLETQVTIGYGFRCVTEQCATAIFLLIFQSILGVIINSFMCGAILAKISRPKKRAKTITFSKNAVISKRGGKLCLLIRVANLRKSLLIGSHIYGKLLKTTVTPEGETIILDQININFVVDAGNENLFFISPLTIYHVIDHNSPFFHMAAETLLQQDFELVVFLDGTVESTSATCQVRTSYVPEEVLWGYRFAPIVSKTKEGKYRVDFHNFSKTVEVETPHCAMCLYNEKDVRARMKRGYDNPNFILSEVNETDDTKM
Experimental: The following Thallium Flux Assay was performed on each of the final product compounds in the Examples.
Cell Culture Conditions—HEK293 cells stably expressing hROMK (hKir1.1) were grown at 37° C. in a 10% CO2 humidified incubator in complete growth media: Dulbecco's Modified Eagle Medium supplemented with non-essential amino acids, Penicillin/Streptomycin/Glutamine, G418 and FBS. At >80% confluency, aspirate the media from the flask and rinse with 10 mL Calcium/Magnesium-free PBS. Add 5 mL of 1× trypsin (prepared in Ca/Mg Free PBS) to T-225 flask and return flask to 37° C./CO2 incubator for 2-3 minutes. To dislodge the cell, gently bang the side of the flask with your hand. Triturate the cells completely and then transfer the cells to 25 mL complete media. Centrifuge at 1,500 rpm for 6 min followed by resuspension in complete growth media and determine cell concentration. For typical re-seeding, 4E6 cells/T-225 flask will attain >80% confluency in 4 days. Under ideal growth conditions and appropriate tissue culture practices, this cell line is stable for 40-45 passages. FluxOR Kit Components (Invitrogen F10017) • FluxOR™ Reagent (Component A) • FluxOR™ Assay Buffer (Component B)—10× Concentrate • PowerLoad™ Concentrate (Component C)—100× Concentrate • Probenecid (Component D)—Lyophilized sample is kept at −20° C. Water soluble, 100× after solubilization in 1 mL water. Store at 4° C. • FluxOR™ Chloride-free Buffer (Component E)—5× Concentrate • Potassium sulfate (K2SO4) Concentrate (Component F)—125 mM in water. Store at 4° C. • Thallium sulfate (Tl2SO4) Concentrate (Component G)—50 mM in water. Store at 4° C. • DMSO (dimethyl sulfoxide, Component H)—1 mL (100%) Reagent Preparation: FluxOR Working Solutions • 1000× FluxOR™ Reagent: Reconstitute a vial of component A in 100 μl DMSO; Mix well; Store 10 μl aliquots at −20° C. • 1× FluxOR™ Assay Buffer: Dilute Component B 10-fold with water; Adjust pH to 7.4 with Hepes/NaOH; Filter and store at 4° C. • Probenecid/Assay Buffer: 100 mL of 1× FluxOR™ Assay Buffer; 1 mL of reconstituted component D; Store at 4° C. • Loading Buffer (per microplate): 10 μl 1000× FluxOR™ Reagent; 100 μl component C; 10 mL Probenecid/Assay Buffer • Compound Buffer (per microplate): 20 mL Probenecid/Assay Buffer; 0.3 mM ouabain (10 mM ouabain in water can be stored in amber bottle/aluminum foil at room temperature); Test compound • 1× FluxOR™ Chloride-Free Buffer: Prepare 1× working solution in water. Can be stored at room temperature • Stimulant Buffer (prepared at 5× final concentration in 1× FluxOR™ Chloride-Free Buffer): 7.5 mM Thallium sulfate and 0.75 mM Potassium sulfate (to give a final assay concentration of 3 mM Thallium/0.3 mM Potassium). Store at 4° C. when not in use. If kept sterile, this solution is good for months. Assay Protocol—The ROMK channel functional thallium flux assay is performed in 384 wells, using the FLIPR-Tetra instrument. HEK-hKir1.1 cells are seeded in Poly-D-Lysine microplates and kept in a 37° C.-10% CO2 incubator overnight. On the day of the experiment, the growth media is replaced with the FluxOR™ reagent loading buffer and incubated, protected from light, at ambient temperature (23-25° C.) for 90 min. The loading buffer is replaced with assay buffer±test compound followed by 30 min incubation at ambient temperature, where the Thallium/Potassium stimulant is added to the microplate. Step Protocol • 1. Seed HEK-hKir1.1 cells (50 μl at 20,000 cells/well) in 384-well PDL coated Microplates • 2. Allow cells to adhere overnight in humidified 37° C./10% CO2 incubator • 3. Completely remove cell growth media from microplate and replace with 25 μl loading buffer • 4. Incubate Microplate at room temperature, protected form light, for 90 min • 5. Remove loading buffer and replace with 25 μl 1× Assay Buffer±test compound. • 6. Incubate microplate at room temperature, protected from light, for 30 min • 7. At FLIPR-Tetra 384: Add stimulant (Thallium/Potassium) solution to microplate and monitor fluorescence. […]

Structure (SMILES)	IC50 [nM]
CC1=C(N2CCC3(CC4CCC(C3)N4C[C@H](O)c3cc(C)c(-n4cnnn4)nn3)C2=O)COC1=O (stereo partly drawn) [Example 55, (1R,5R)-8-{(2S)-2-hydroxy-2-[5-methyl-6-(1H-tetrazol-1-yl)pyridazin-3-yl]ethyl}-1′-(4-methyl-5-oxo-2,5-dihydrofuran-3-yl)-2′-oxospiro[8-azoniabicyclo[3.2.1]octane-3,3′-pyrrolidine]]	50
CC1=C(N2CCC3(CCN(C[C@@H](F)c4ccc(-n5cnnn5)cn4)CC3)C2=O)COC1=O [Example 280, 8-{(2R)-2-fluoro-2-[5-(1H-tetrazol-1-yl)pyridin-2-yl]ethyl}-2-(4-methyl-5-oxo-2,5-dihydrofuran-3-yl)-1-oxo-2-aza-8-azoniaspiro[4.5]decane]	30
Cc1nc(-n2cnnn2)ccc1[C@@H](O)CN1C2CCC1CC1(CCN(C3=CC(=O)OC3)C1=O)C2 (stereo partly drawn) [Example 43, (1R,5R)-8-{(2R)-2-hydroxy-2-[2-methyl-6-(1H-tetrazol-1-yl)pyridin-3-yl]ethyl}-2′-oxo-1′-(5-oxo-2,5-dihydrofuran-3-yl)spiro[8-azoniabicyclo[3.2.1]octane-3,3′-pyrrolidine]]	10
CC1=C(N2CCC3(CCN(C[C@@H](O)c4ncc(-n5cnnn5)nc4C)CC3)C2=O)COC1=O [Example 99, 8-{(2R)-2-hydroxy-2-[3-methyl-5-(1H-tetrazol-1-yl)pyrazin-2-yl]ethyl}-2-(4-methyl-5-oxo-2,5-dihydrofuran-3-yl)-1-oxo-2-aza-8-azoniaspiro[4.5]decane]	50
CC1=C(N2CCC3(CCN(C[C@@H](O)c4nnc(-n5cnnn5)cc4C)CC3)C2=O)COC1=O [Example 122, 8-{(2R)-2-hydroxy-2-[4-methyl-6-(1H-tetrazol-1-yl)pyridazin-3-yl]ethyl}-2-(4-methyl-5-oxo-2,5-dihydrofuran-3-yl)-1-oxo-2-aza-8-azoniaspiro[4.5]decane]	10
CC1=C(N2CC(O)C3(CCN(CCc4ccc(-n5cnnn5)nn4)CC3)C2=O)COC1=O (single isomer, unassigned) [Example 243, 4-hydroxy-2-(4-methyl-5-oxo-2,5-dihydrofuran-3-yl)-1-oxo-8-{2-[6-(1H-tetrazol-1-yl)pyridazin-3-yl]ethyl}-2-aza-8-azoniaspiro[4.5]decane]	210
CC1=C(N2CCC3(CCN(CCc4ccc(-n5cnnn5)nn4)CC3F)C2=O)COC1=O (single isomer, unassigned) [Example 266, 6-fluoro-2-(4-methyl-5-oxo-2,5-dihydrofuran-3-yl)-8-{2-[6-(1H-tetrazol-1-yl)pyridazin-3-yl]ethyl}-2,8-diazaspiro[4.5]decan-1-one]	10
CC1=C(N2CCC3(CCN(C[C@H](O)c4ncc(-n5cnnn5)cn4)CC3)C2=O)COC1=O [Example 40, 8-{(2S)-2-hydroxy-2-[5-(1H-tetrazol-1-yl)pyrimidin-2-yl]ethyl}-2-(4-methyl-5-oxo-2,5-dihydrofuran-3-yl)-1-oxo-2-aza-8-azoniaspiro[4.5]decane]	200
O=C1C=C(N2CCC3(CC4CCC(C3)N4C[C@H](O)c3ccc(-n4cnnn4)nn3)C2=O)CO1 (stereo partly drawn) [Example 44, (1R,5R)-8-{(2S)-2-hydroxy-2-[6-(1H-tetrazol-1-yl)pyridazin-3-yl]ethyl}-2′-oxo-1′-(5-oxo-2,5-dihydrofuran-3-yl)spiro[8-azoniabicyclo[3.2.1]octane-3,3′-pyrrolidine]]	10
CC1=C(N2CCC3(CCN(C[C@H](O)c4nnc(-n5cnnn5)cc4C)CC3F)C2=O)COC1=O (single isomer, unassigned) [Example 198]	10
CC1=C(N2CCC3(CCN(C(C)(C)C(O)c4ccc(-n5cnnn5)cn4)CC3)C2=O)COC1=O (single isomer, unassigned) [Example 299]	10

Other lines, results leading:

IC50 [nM]	Structure (SMILES)
20	CC1=CC2(CCN(C[C@H](O)c3ccc(-n4cnnn4)nc3)CC2)C(=O)N1C1=CC(=O)OC1 [Example 174, 8-{(2R)-2-hydroxy-2-[6-(1H-tetrazol-1-yl)pyridin-3-yl]ethyl}-3-methyl-2-(5-oxo-2,5-dihydrofuran-3-yl)-2,8-diazaspiro[4.5]dec-3-en-1-one]
10	C[C@H]1CC2(CCN(C[C@H](O)c3ccc(-n4cnnn4)nc3)CC2)C(=O)N1C1=CC(=O)OC1 [Example 81, (3S)-8-{(2R)-2-hydroxy-2-[6-(1H-tetrazol-1-yl)pyridin-3-yl]ethyl}-3-methyl-1-oxo-2-(5-oxo-2,5-dihydrofuran-3-yl)-2-aza-8-azoniaspiro[4.5]decane]
10	CC1=C(N2CCC3(CCN(C[C@@H](O)c4ccc(-n5cnnn5)cc4)CC3)C2=O)COC1=O [Example 35, 8-{(2S)-2-hydroxy-2-[4-(1H-tetrazol-1-yl)phenyl]ethyl}-2-(4-methyl-5-oxo-2,5-dihydrofuran-3-yl)-1-oxo-2-aza-8-azoniaspiro[4.5]decane]
10	Cc1nc(-n2cnnn2)cnc1C(O)CN1CCC2(CC1)C[C@H](C)N(C1=CC(=O)OC1)C2=O (mixture of isomers) [Example 169, (3S)-8-{2-hydroxy-2-[3-methyl-5-(1H-tetrazol-1-yl)pyrazin-2-yl]ethyl}-3-methyl-2-(5-oxo-2,5-dihydrofuran-3-yl)-2,8-diazaspiro[4.5]decan-1-one]
60	CC1=C(N2C(=O)C3(CCN(C[C@@H](O)c4ccc(-n5cnnn5)nc4C)CC3)CC2C)COC1=O (mixture of isomers) [Example 58, 8-{(2S)-2-hydroxy-2-[2-methyl-6-(1H-tetrazol-1-yl)pyridin-3-yl]ethyl}-3-methyl-2-(4-methyl-5-oxo-2,5-dihydrofuran-3-yl)-1-oxo-2-aza-8-azoniaspiro[4.5]decane]
90	CC1=C(N2C(=O)C3(CCN(C[C@@H](O)c4ccc(-n5cnnn5)nn4)CC3)CC2C)COC1=O (single isomer, unassigned) [Example 126]
80	CC1=C(N2C(=O)C3(CCN(C[C@H](O)c4ncc(-n5cnnn5)cc4C)CC3)CC2C)COC1=O (single isomer, unassigned) [Example 137]
120	CC1=C(N2CC(O)C3(CCN(C[C@H](O)c4ccc(-n5cnnn5)nc4)CC3)C2=O)COC1=O (single isomer, unassigned) [Example 110]
40	Cc1nc([C@@H](O)CN2CCC3(CC2)CCN(C2=CC(=O)OC2)C3=O)ccc1-n1cnnn1 [Example 5, 8-{(2S)-2-hydroxy-2-[6-methyl-5-(1H-tetrazol-1-yl)pyridin-2-yl]ethyl}-1-oxo-2-(5-oxo-2,5-dihydrofuran-3-yl)-2-aza-8-azoniaspiro[4.5]decane]
60	COC1CN(C2=C(C)C(=O)OC2)C(=O)C12CCN(C[C@H](O)c1ccc(-n3cnnn3)nc1)CC2 (single isomer, unassigned) [Example 115]

From patent US9765074B2, “Inhibitors of the renal outer medullary potassium channel” (Merck Sharp & Dohme Corp., priority 2013, dated 2017)
